{"source": "patent US20040242679A1", "about": "“Methods and compositions for potentiating cancer chemotherapeutic agents” (priority 2002, published 2004)", "key": {"[1]": {"tested_on": "SK-Hep-1, a liver adenocarcinoma (hepatoma)", "assay": "Cell Proliferation ELISA, BudR (colorimetric), hepatoma cells", "type": "cell-based, human", "conditions": "for suppression of hepatoma proliferation, adjuvant combined with ADR: adjuvant 0.5 mM AA equivalents, one application of ADR, two of adjuvant, prominent at ADR 0.003-0.03 micromolar; for inhibition of hepatoma proliferation, single agent: ADR 0.02-0.33 micromoles, furanone 0.001-0.01% compared at same absolute concentration", "excerpt": "(§1) Calcium ascorbate (CA), calcium threonate (CT), 4-hydroxy-5-methyl-3(2H)-furanone (FR) and Ester-C (EC) are obtained from Inter-Cal Corporation, Prescott, Ariz., USA. Tissue culture grade Ascorbic acid (AA) is from Sigma Chemical Company, St. Louis, Mo., USA. The composition of calcium ascorbate (calcium di-(L-ascorbate) dihydrate) is made by sequentially dissolving the salt in sterile water to obtain master-stock solutions of equal strength (1% w/v). Aqueous solution of calcium ascorbate plus calcium threonate plus 4-hydroxy-5-methyl-3(2H)-furanone (CA/CT/FR) is prepared at ratio of 85/7.5/7.5. For comparative analysis, stock solutions containing identical ascorbic acid (AA) equivalents are used. All master stocks are stored at room temperature during the course of these procedures. From these, 10× strength working stocks are prepared by serial dilution on the day of use and are applied to cells in microtiter plates as described below.\nAdriamycin (doxorubicin) is obtained from Sigma Chemical Company (St. Louis, Mo.). Stock solutions are made by dissolving adriamycin (ADR) in sterile water and DTIC in water or dilute acetic acid solution (0.01N). Stocks are stored frozen at −10 C. and thawed prior to use. Serial dilutions are made in sterile water to obtain 10× strength solutions and one tenth volume of this is applied to cells at the time of treatment.\nTarget human tumor-derived lines consist of SK-Hep-1, a liver adenocarcinoma ([…]) and Malme-3M, a malignant melanoma. All seed cultures are obtained from ATCC, Manassas, Va., USA and are propagated/maintained in serum-containing growth medium in a humidified incubator of 5% CO2/95% air. SK-Hep-1 cells are grown in Eagle's minimum essential medium (EMEM) in Earle's salts plus non-essential amino acids supplemented with 10% FBS plus antibiotics and Malme-3M cells are cultured in McCoy's medium supplemented with 15% fetal bovine serum (FBS) plus antibiotics.\nFor treatment, exponentially growing cells are seeded at a density of 1×10^4 cells per well of 96-well microtiter plate in 0.1-0.2 ml of growth medium. After overnight cell attachment at 37 C., duplicate wells are exposed to various treatments by direct application of one-tenth volume of 10× strength solution. For treatments involving chemotherapeutic agent, one-tenth volume of serial dilutions of adriamycin (0.0006-3.0 micromolar) are applied to wells followed by application of ascorbate-containing composition (adjuvant) or sterile water (control). The adjuvant treatment is repeated every other day or on the third day (as applicable) without change of growth medium. Untreated controls receive an equivalent amount of sterile water. After 2-3 treatments with adjuvant, cells are labeled with BudR as described below. (In some experiments, wells are refed an equal volume of growth medium prior to additional of BudR. This gives a higher amount of BrdU incorporation into DNA relative to no refluiding).\nFor DNA labeling, the following procedure is adapted and modified from the Cell Proliferation ELISA, BudR (Colorimetric) assay of Roche Diagnostics, Indianapolis, Ind., USA: Each treated well is exposed to one-tenth volume of 10× BrdU-containing medium and reincubated at 37 C. overnight (15-20 hrs.). One set of control wells is exposed to medium only (no BudR) to obtain an absorbance-control (substrate only) blank for the assay. After the labeling period, the culture medium is removed and the cells are fixed and DNA denatured in one step by adding FixDenat (30 min at RT). Then, FixDenat is removed, the anti-BrdU-peroxidase reagent is added and incubation continues for 90 min at RT. After removal of the latter, the plate is washed 3 times, followed by addition of substrate solution. The plate is kept at RT until color development became sufficient for photometric detection ([…]). At this time, reaction is stopped by addition to each well of 25 microliter 1M sulfuric acid followed by mixing for approximately 1 min on the shaker. […]"}, "[2]": {"tested_on": "normal human liver (WRL 68)", "assay": "Cell death detection ELISA (histone-DNA complexes), normal liver cells", "type": "cell-based", "conditions": "0.01-0.0001% furanone, three sequential treatments", "description": "(§2) Four human tumor cell types, shown previously to be sensitive to combinations of mineral ascorbate plus metabolites are evaluated. These lines consist of: (i) a liver hepatoma (SK-Hep-1), (ii) a malignant melanoma (Malme-3M), (iii) a neurobastoma (SK-N-MC) and (iv) a colon carcinoma (T84). Non-malignant cell types consist of: normal human liver (WRL 68), normal skin fibroblasts (Malme-3) and normal retinal epithelial cells (ARPE-19). The tumor-derived lines, normal liver and skin fibroblasts are obtained from the American Type Culture Collection (ATCC). The ARPE-19 cell line is a gift from a colleague at California Institute for Medical Research. Cells are grown and maintained in culture, in a humidified incubator of 5% CO2/95% air. […]\n(§3) Subconfluent monolayers of 1-2 old, adherent cultures (seeded at a density of 10,000 cells per well in a 96-well plate) are exposed to 0.1 volume of serial dilutions (10× concentrated solutions) of the furanone and the plate is returned to the incubator. […] The supernatant (cytoplasmic lysate) is saved and in aliquot (20 microliters) was assayed for the presence of histone-DNA complexes (nucleosomal fragments) by photometric detection (absorbance at 405-410 nm) using cell death detection Elisa assay (Roche Diagnostics)."}, "[3]": {"tested_on": "liver hepatoma (SK-Hep-1)", "assay": "Cell death detection ELISA, hepatoma cells", "type": "cell-based, human", "description": "as §2, §3"}, "[4]": {"tested_on": "malignant melanoma (Malme-3M)", "assay": "Cell death detection ELISA, melanoma cells", "type": "cell-based, human", "description": "as §2, §3"}, "[5]": {"tested_on": "normal skin fibroblasts (Malme-3)", "assay": "Cell death detection ELISA, normal skin fibroblasts", "type": "cell-based, human", "conditions": "two furanone preparations", "description": "as §2, §3"}, "[6]": {"tested_on": "colon carcinoma (T84)", "assay": "Cell death detection ELISA, colon carcinoma cells", "type": "cell-based, human", "conditions": "up to a max. of 0.01% furanone", "description": "as §2, §3"}, "[7]": {"tested_on": "normal retinal epithelial cells (ARPE-19)", "assay": "Cell death detection ELISA, normal retinal epithelial cells", "type": "cell-based, human", "conditions": "up to max of 0.003% furanone", "description": "as §2, §3"}, "[8]": {"tested_on": "neurobastoma (SK-N-MC)", "assay": "Cell death detection ELISA, neuroblastoma cells", "type": "cell-based, human", "conditions": "up to max of 0.001% furanone", "description": "as §2, §3"}, "[9]": {"tested_on": "Malme-3M, a malignant melanoma", "assay": "Cell Proliferation ELISA, BudR (colorimetric), melanoma cells", "type": "cell-based, human", "conditions": "furanone at 0.1% as printed; FIG. 21", "excerpt": "as §1, with “below. […]” for “below.”\nFor DNA labeling, the following procedure is adapted and modified from the Cell Proliferation ELISA, BudR (Colorimetric) assay of Roche Diagnostics, Indianapolis, Ind., USA: Each treated well is exposed to one-tenth volume of 10× BrdU-containing medium and reincubated at 37 C. overnight (15-20 hrs.). One set of control wells is exposed to medium only (no BudR) to obtain an absorbance-control (substrate only) blank for the assay. […]"}}, "data": [{"compound": "calcium di-(L-ascorbate) dihydrate", "values": [{"measurement": "improvement of anti-proliferation activity of ADR", "setting": "[1]; 0.033% adjuvant, low doses of ADR", "value": "consistently improve the anti-proliferation activity of low doses of ADR"}, {"measurement": "suppression of hepatoma proliferation, adjuvant combined with ADR", "setting": "[1]; dihydrate", "value": "greater suppression of hepatoma proliferation than ADR alone"}, {"measurement": "suppression of hepatoma proliferation, adjuvant combined with ADR", "setting": "[1]; listed as Calcium ascorbate, dihydrate", "value": "more effective than ascorbic acid"}]}, {"compound": "COc1cccc2c1C(=O)c1c(O)c3c(c(O)c1C2=O)C[C@@](O)(C(=O)CO)C[C@@H]3O[C@H]1C[C@H](N)[C@H](O)[C@H](C)O1", "note": "[ADR, Adriamycin (doxorubicin), reference compound]", "values": [{"measurement": "inhibition of hepatoma proliferation, single agent", "setting": "[1]", "value": "dose-dependent inhibition of hepatoma proliferation"}]}, {"compound": "CC1=C(O)C(=O)CO1", "note": "[furanone, 4-hydroxy-5-methyl-3(2H)-furanone]", "values": [{"measurement": "maximal change in cell-death rate", "setting": "[2]", "value": "less than 0.3 logs"}, {"measurement": "cell death in hepatoma cells", "setting": "[3]; furanone 0.001-0.01% (0.08-0.88 mM), three sequential treatments", "value": "sharp rises in cell death"}, {"measurement": "minimal concentration required to produce 2-fold change in apoptosis rate", "setting": "[3]; hepatoma cells", "value": "< 0.001", "unit": "%"}, {"measurement": "minimal concentration required to produce 2-fold change in apoptosis rate", "setting": "[4]", "value": 0.003, "unit": "%"}, {"measurement": "increase in apoptosis", "setting": "[5]", "value": "< 0.3", "unit": "log"}, {"measurement": "change in rate of cellular apoptosis over untreated control", "setting": "[6]", "value": "< 0.5", "unit": "log"}, {"measurement": "change in death rates", "setting": "[7]", "value": "does not elicit significant changes in death rates"}, {"measurement": "change in death rates", "setting": "[8]", "value": "does not elicit significant changes in death rates"}, {"measurement": "reduction in cellular DNA synthesis compared to untreated control", "setting": "[1]; 0.01% furanone alone", "value": "~4.6", "unit": "fold"}, {"measurement": "enhancement of the inhibitory effect of ADR", "setting": "[1]; ADR 0.007 micromolar, adjuvant 0.01%", "value": 7, "unit": "fold"}, {"measurement": "inhibition of hepatoma proliferation, single agent", "setting": "[1]", "value": "more effective in inhibiting hepatoma proliferation than either the triple ascorbate/metabolite mix or Ester-C®"}, {"measurement": "minimal dose of furanone required to produce 2-fold enhancement of ADR inhibition", "setting": "[1]; two independent experiments", "value": "~0.0016", "unit": "%"}, {"measurement": "enhancement of the inhibitory effect of ADR in melanoma cells", "setting": "[9]", "value": "consistently enhances the inhibitory effect of ADR at all concentrations of the chemotherapeutic drug"}]}, {"compound": "O=C1O[C@H]([C@@H](O)CO)C(O)=C1O", "note": "[AA, Ascorbic acid, reference compound]", "values": [{"measurement": "suppression of hepatoma proliferation, adjuvant combined with ADR", "setting": "[1]", "value": "greater suppression of hepatoma proliferation than ADR alone"}]}]}
